# Measured values reported in the supplement of paper PMC11003180.
# What was measured:
# Assay in all cases: drug sensitivity score (DSS) from 5-dose viability curve (DSS (area-based score, 0 = no response)); higher = more sensitive (stronger viability inhibition); extreme values may be limits of the assay
# [1] = tested on: MDCK wild-type + doxycycline; conditions: doxycycline: 10 ng/mL; 72 h
# Procedure, shortened: (§1)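 Parental MDCK cells and MDCK cells with doxycycline-inducible p60AmotL2, both given doxycycline at 10 ng/mL in the medium before plating, were dispensed at 2000 cells/well onto pre-spotted 384-well plates. The plates held an oncology library of 528 drugs at five doses (1-10,000 nM) and were incubated 72 h at 37 °C. Viability was read as CellTiter-Glo luminescence and scaled per plate between vehicle and positive controls. Drug sensitivity scores came from dose-response curve fits in the Breeze pipeline.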
# [2] = tested on: MDCK p60AmotL2-inducible + doxycycline (p60AmotL2 expressing); conditions: doxycycline: 10 ng/mL; 72 h
# Procedure, shortened: as §1
# [3] = tested on: MDCK wild-type - doxycycline; conditions: doxycycline: none; 72 h
# Procedure, shortened: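 For 72 h at 37 °C, parental MDCK cells (no doxycycline, 2000 cells/well) were incubated on 384-well plates pre-spotted with 528 oncology drugs at five doses from 1 to 10,000 nM. CellTiter-Glo luminescence served as the viability readout, scaled per plate between vehicle and positive controls. The Breeze pipeline then fitted dose-response curves to yield drug sensitivity scores.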
Compound,drug sensitivity score [1],drug sensitivity score [2],drug sensitivity score [3]
CS(=O)(=O)c1ccc(-c2cnc(N)c(C(=O)Nc3ccccc3)n2)cc1 [VE-821],0,0,0
CCOC(=O)C1=CCCC[C@H]1S(=O)(=O)Nc1ccc(F)cc1Cl [Resatorvid],0,0,0
O=C(Nc1cnn2ccc(N3CCC[C@@H]3c3cc(F)ccc3F)nc12)N1CC[C@H](O)C1 [Larotrectinib],0,0,0
C=CC(=O)N1CC/C(=C\c2ccc(F)c([N+](=O)[O-])c2)C(=O)/C(=C/c2ccc(F)c([N+](=O)[O-])c2)C1 [VLX1570],17.3,17.2,15.5
Cc1nc2cccc(N)c2c(=O)n1C1CCC(=O)NC1=O (configuration not stated) [CC122],0,0,0
O=C(/C=C\n1cnc(-c2cc(C(F)(F)F)cc(C(F)(F)F)c2)n1)NNc1cnccn1 [Selinexor],16.4,16.7,15.1
Nc1nc(N)c2nc(-c3cccc(O)c3)c(-c3cccc(O)c3)nc2n1 [TG100-115],0,0,0
Cc1cn(-c2cc(NC(=O)c3ccc(C)c(Nc4nccc(-c5cnccn5)n4)c3)cc(C(F)(F)F)c2)cn1 [Radotinib],0,0,0
Cc1nc(=O)c2cc(CN(C)c3ccc(C(=O)N[C@@H](CCC(=O)O)C(=O)O)s3)ccc2[nH]1 [Raltitrexed],3.3,5,3
Cc1ccc(F)c(NC(=O)Nc2ccc(-c3cccc4[nH]nc(N)c34)cc2)c1 [Linifanib],0,0,0
O=C(CCNC(=O)c1ccc(OC(F)(F)F)cc1)N[C@@H]1CCCc2ccccc21 [ML390],14.5,18.3,13.8
Nc1cc(F)ccc1NC(=O)c1ccc(CNC(=O)/C=C/c2cccnc2)cc1 [Tucidinostat],2.4,2.6,0.8
O=C1CCc2c(Oc3ccc4c(c3)[C@@H]3[C@H](O4)[C@H]3c3nc4cc(C(F)(F)F)ccc4[nH]3)ccnc2N1 [BGB-283],5.4,6.6,1.6
CNC(=O)c1ccccc1Sc1ccc2c(/C=C/c3ccccn3)n[nH]c2c1 [Axitinib],0,5.7,0
COc1cc2nccc(Oc3ccc(NC(=O)NC4CC4)c(Cl)c3)c2cc1C(N)=O [Lenvatinib],0,0,0
O=C(Nc1cc(Cl)cc2c1[nH]c1cnccc12)c1cccnc1 [PS-1145],0,0,0
CCc1c2c(nc3ccc(O)cc13)-c1cc3c(c(=O)n1C2)COC(=O)[C@]3(O)CC [SN-38],23.3,24.8,21.1
CC1CCC(n2c3cnccc3c3cnc(Nc4ccc5c(n4)CCN(C(=O)CO)C5)nc32)CC1 (configuration not stated) [AMG-925],0,1.3,0
O=C(Nc1ccc2[nH]nc(-c3ccncc3)c2c1)[C@@H]1CCN(CC(=O)N2CCN(c3ccc(-c4ncccn4)cc3)CC2)C1,6.7,10.7,3.5
